Four compounds from paper PMC9499987 (Antiviral Research, 2022) can be followed below.

Structures are written as SMILES.

The target in assay [1] is T1, SARS-CoV-2 3CL^pro (Severe acute respiratory syndrome coronavirus 2, UniProt P0DTD1). Briefly: cell-based. The settings on record: EC50 against SARS-CoV-2 3CLpro (BRET ratio).
The target of assay [2] is T1, SARS-CoV-2 3CL^pro. Description: Microscale thermophoresis. Type of assay: binding. (MST reads how a fluorescent partner responds to local heating, with and without ligand.)
For assay [3], the system named is HCoV-OC43. Briefly: Anti-coronavirus activity assay. Type of assay: cell-based. The settings on record: HCT-8 cells, MOI 0.1, serial dilutions up to 50 μM.

On to `CC(C)(C)NC(=O)[C@@H]1C[C@@H]2CCCC[C@@H]2CN1C[C@@H](O)[C@H](Cc1ccccc1)NC(=O)[C@H](CC(N)=O)NC(=O)c1ccc2ccccc2n1` [saquinavir], for which the EC50 in assay [1] was 40 µM.

Turning to `C=C(C)[C@@H]1CC[C@]2(C(=O)O)CC[C@]3(C)[C@H](CC[C@@H]4[C@@]5(C)CC[C@H](OC(=O)CC(C)(C)C(=O)O)C(C)(C)[C@@H]5CC[C@]43C)[C@@H]12` [bevirimat, Bevirimat], the Kd in assay [2] (Kd(M), MST, target 100 nM, ligand 0.0153 μM–500 μM, MST power 40%) was found to be 1.05e-05 M; in assay [2] (Kd, MST, labeled 3CLpro 100 nM, 40% MST power), 1.05e-05 M. Moreover, the “inhibitory effect on the replication of HCoV-OC43” value in assay [3] is “did not significantly inhibit”. With `Cc1c(O)cccc1C(=O)N[C@@H](CSc1ccccc1)[C@H](O)CN1C[C@H]2CCCC[C@H]2C[C@H]1C(=O)NC(C)(C)C` [nelfinavir, Nelfinavir], the Kd in assay [2] (Kd) and in assay [2] (Kd(M)) was 9.16e-05 M each time. On to `C=C[C@@H]1C[C@]1(NC(=O)[C@@H]1C[C@@H]2CN1C(=O)[C@H](C(C)(C)C)NC(=O)O[C@@H]1C[C@H]1CCCCCc1nc3ccc(OC)cc3nc1O2)C(=O)NS(=O)(=O)C1CC1.O` [grazoprevir, Grazoprevir], for which the “inhibitory effect on the replication of HCoV-OC43” value in assay [3] is listed as “did not significantly inhibit”.

As usually defined, the EC50 is the concentration that produces a half-maximal response. For orientation: Kd means the concentration at which binding is half-saturated. Lower therefore signals higher affinity.
